Test results published in patent US10052320B2, “Substituted quinoxalines as FGFR kinase inhibitors” (ASTEX THERAPEUTICS LIMITED, priority 2011, dated 2018).
Like-named read-outs stand apart in the source and are kept apart here.

Key:
[1] = test system: Ba/F3-FGFR1-transfected cells in the presence of 10 ng/ml murine IL3; assay: Ba/F3-FGFR1 (plus IL3) cellular proliferation counterscreen, Alamar Blue; type: cell-based; conditions: Mus musculus
Procedure, shortened: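 First, compound was dispensed and cells added at 20000/well, or 10000/well in the larger-well version. Next came a 24 h incubation at 37 °C. Finally, resazurin reagent was applied for 4 h before fluorescence measurement at 540/590 nm.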

[2] = target: Ba/F3-FGFR3-transfected cells (Homo sapiens, UniProt P22607); assay: Ba/F3-FGFR3 (minus IL3) cellular proliferation assay, Alamar Blue; type: cell-based; conditions: for BAF3-FGFR 3 (MIN IL3) 96 well pIC50: minus IL3, 96 well; for BAF3-FGFR 3 (MIN IL3) 384 well pIC50: minus IL3, 384 well
Ba/F3-FGFR3-transfected cells, sequence (P22607 whole entry, change not shown): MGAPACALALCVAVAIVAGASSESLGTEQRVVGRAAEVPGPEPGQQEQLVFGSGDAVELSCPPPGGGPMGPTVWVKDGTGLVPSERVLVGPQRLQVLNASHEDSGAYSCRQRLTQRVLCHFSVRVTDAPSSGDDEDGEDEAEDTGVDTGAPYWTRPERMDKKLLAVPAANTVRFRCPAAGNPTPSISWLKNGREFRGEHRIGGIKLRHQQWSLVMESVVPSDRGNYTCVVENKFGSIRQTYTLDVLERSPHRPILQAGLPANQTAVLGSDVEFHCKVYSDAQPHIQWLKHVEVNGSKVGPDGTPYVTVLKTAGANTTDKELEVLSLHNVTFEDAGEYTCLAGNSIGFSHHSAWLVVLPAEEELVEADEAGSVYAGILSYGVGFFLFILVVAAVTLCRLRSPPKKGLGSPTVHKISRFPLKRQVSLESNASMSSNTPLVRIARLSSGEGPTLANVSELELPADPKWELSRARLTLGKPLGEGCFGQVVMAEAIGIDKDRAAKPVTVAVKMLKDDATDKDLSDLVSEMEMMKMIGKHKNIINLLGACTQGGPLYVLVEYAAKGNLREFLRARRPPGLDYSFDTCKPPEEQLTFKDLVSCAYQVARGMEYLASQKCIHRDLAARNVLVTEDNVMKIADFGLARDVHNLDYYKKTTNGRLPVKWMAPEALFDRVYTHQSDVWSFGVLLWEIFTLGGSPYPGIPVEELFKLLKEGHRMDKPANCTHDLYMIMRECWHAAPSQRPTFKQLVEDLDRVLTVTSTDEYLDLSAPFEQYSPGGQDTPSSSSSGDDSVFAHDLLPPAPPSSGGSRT
Description: Ba/F3-FGFR3 (Minus IL3 or Plus IL3) (Cellular Proliferation Assay)
Cells were put in an incubator at 37° C. and 5% CO2. After 24 hours, 10 μl of Alamar Blue solution (0.5 mM K3Fe(CN)6, 0.5 mM KaFe(CN)6, 0.15 mM Resazurin and 100 mM Phosphate Buffer) was added to the wells, incubated for 4 hours at 37° C. and 5% CO2 before RFU's (Relative Fluorescence Units) (ex. 540 nm., em. 590 nm.) were measured in a flurorescence plate reader. […]
In a 96 well plate, 180 μl cell culture medium (phenol red free RPMI-1640, 10% FBS, 2 mM L-Glutamine and 50 μg/ml Gentamycin) containing 10000 cells per well of Ba/F3-FGFR3-transfected cells were pipette and 20 μl of compound dilution in DMSO was added. Cells were put in an incubator at 37° C. and 5% CO2. After 24 hours, 40 μl of Alamar Blue solution (0.5 mM K3Fe(CN)6, 0.5 mM KaFe(CN)6, 0.15 mM Resazurin and 100 mM Phosphate Buffer) was added to the wells, incubated for 4 hours at 37° C. and 5% CO2 before RFU's (Relative Fluorescence Units) (ex. 540 nm., em. 590 nm.) were measured in a flurorescence plate reader.

[3] = target: T1, Ba/F3-Flt3-transfected cells (Homo sapiens, UniProt P36888, cells depend on it, form not given); assay: Ba/F3-Flt3 (minus IL3) cellular proliferation assay, Alamar Blue; type: cell-based
T1 sequence (P36888 1-993): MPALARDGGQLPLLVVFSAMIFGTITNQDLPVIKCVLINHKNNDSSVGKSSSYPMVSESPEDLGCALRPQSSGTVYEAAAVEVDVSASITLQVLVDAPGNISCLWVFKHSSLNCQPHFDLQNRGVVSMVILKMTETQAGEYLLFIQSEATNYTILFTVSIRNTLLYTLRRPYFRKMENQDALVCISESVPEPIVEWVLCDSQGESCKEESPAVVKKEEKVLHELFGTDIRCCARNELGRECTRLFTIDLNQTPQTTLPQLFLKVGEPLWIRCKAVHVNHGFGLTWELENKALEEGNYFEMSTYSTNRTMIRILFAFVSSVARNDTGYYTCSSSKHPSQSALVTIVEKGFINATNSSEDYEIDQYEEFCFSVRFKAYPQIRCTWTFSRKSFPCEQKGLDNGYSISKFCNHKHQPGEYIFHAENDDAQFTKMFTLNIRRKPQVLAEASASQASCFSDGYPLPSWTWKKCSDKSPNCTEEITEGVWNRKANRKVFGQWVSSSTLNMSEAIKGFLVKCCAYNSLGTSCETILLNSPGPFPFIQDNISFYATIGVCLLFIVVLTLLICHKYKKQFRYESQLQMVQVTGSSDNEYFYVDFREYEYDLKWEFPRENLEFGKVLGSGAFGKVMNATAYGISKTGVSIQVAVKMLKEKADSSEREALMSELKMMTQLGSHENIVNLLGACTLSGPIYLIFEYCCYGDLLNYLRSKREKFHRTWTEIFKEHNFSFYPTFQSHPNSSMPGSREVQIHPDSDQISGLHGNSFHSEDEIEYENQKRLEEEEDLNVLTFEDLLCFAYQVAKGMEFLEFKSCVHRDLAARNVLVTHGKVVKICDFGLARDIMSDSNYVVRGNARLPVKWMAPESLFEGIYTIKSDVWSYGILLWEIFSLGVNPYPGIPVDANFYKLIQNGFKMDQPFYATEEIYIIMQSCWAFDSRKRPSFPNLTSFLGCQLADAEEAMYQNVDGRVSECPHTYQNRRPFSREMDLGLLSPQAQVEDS

[4] = plus IL3, 384 well, read-out: BAF3-FGFR 1 (PLUS IL3) 384 well pIC50 (converted)
[5] = plus IL3, 96 well, read-out: BAF3-FGFR 1 (PLUS IL3) 96 well pIC50 (converted)

Row | SMILES | IC50 [1, 4] [µM] | BAF3-FGFR 3 (MIN IL3) 96 well pIC50 [2] | BAF3-FGFR 3 (MIN IL3) 384 well pIC50 [2] | BAF3-FLT3 (MIN IL3) 96 well pIC50 ([3]; minus IL3, 96 well) | BAF3-FLT3 (MIN IL3) 384 well pIC50 ([3]; minus IL3, 384 well) | melting point [°C] | IC50 [1, 5] [µM] | BAF3-FLT3 (MIN IL3) 96 well pIC50 ([3]; minus IL3) | BAF3-FLT3 (MIN IL3) 384 well pIC50 ([3]; minus IL3)
1 | COc1cc(OC)cc(N(CC2CC2)c2ccc3ncc(C#Cc4cncn4C)nc3c2)c1 [Compound 22] | > 10 | 5.04 | <5.52 | <5 | <5 | 166 | – | – | –
2 | COc1cc(OC)cc(N(CC2CC2)c2ccc3ncc(C(=O)Nc4cncn4C)nc3c2)c1 [Compound 27] | > 10 | <5 | <5 | – | – | 180 | > 10 | <5 | <5
3 | COc1cc(OC)cc(N(CC2CC2)c2ccc3ncc(NC(=O)c4ccc(F)cc4)nc3c2)c1 [Compound 28] | > 10 | <5 | <5 | – | – | 135 | > 10 | <5 | <5
4 | CO/N=C(\C)c1cnc2ccc(N(CCO)c3cc(OC)cc(OC)c3)cc2n1 [Compound 29] | > 10 | – | 5.5 | – | – | 149 | – | – | <5
5 | COc1cc(OC)cc(N(CCN2CCOCC2)c2ccc3ncc(-c4ccc(NC(=O)N5CCOCC5)nc4)nc3c2)c1 [Compound 35] | > 10 | – | 6.19 | – | – | 153 | – | – | <5
6 | COc1cc(OC)cc(N(CC2CC2)c2ccc3ncc(-c4ccnc(N5CCN(C)CC5)c4)nc3c2)c1 [Compound 37] | > 10 | 5.77 | ~5.26 | 5.59 | 5.05 | 125 | 7.59 | – | –
7 | COc1cc(OC)cc(N(CCO)c2ccc3ncc(-n4cnc(CO)c4)nc3c2)c1 [Compound 38] | > 10 | – | 6.23 | – | – | 215 | – | – | <5
8 | COc1cc(OC)cc(N(CC2CC2)c2ccc3ncc(-c4c[nH]cn4)nc3c2)c1 [Compound 39] | > 10 | 5.51 | 5.08 | – | – | 166 | – | <5 | <5
9 | COc1cc(OC)cc(N(CCCO)c2ccc3ncc(-c4ccnc(C(=O)N5CCOCC5)c4)nc3c2)c1 [Compound 43] | > 10 | – | 6.25 | – | – | 190 | – | – | <5
10 | COc1cc(OC)cc(N(CCCNCC(=O)O)c2ccc3ncc(-c4ccnc(C(=O)NCCCCN)c4)nc3c2)c1 [Compound 44] | > 10 | – | <5 | – | – | 64 | – | – | <5
11 | COc1cc(OC)cc(N(CCN2CCNCC2)c2ccc3ncc(-c4ccc(N)nc4)nc3c2)c1 [Compound 59] | > 10 | – | 5.9 | – | – | 111 | – | – | 5.28
12 | COc1cc(OC)cc(N(CC2CC2)c2ccc3ncc(N4CCOCC4)nc3c2)c1 [Compound 63] | > 10 | <5 | <5 | <5 | <5 | 114 | – | – | –
13 | COc1cc(OC)cc(N(CC2CC2)c2ccc3ncc(N4CCN(C)CC4)nc3c2)c1 [Compound 64] | > 10 | 5.02 | <5 | ~5.12 | <5 | 92 | – | – | –
14 | COc1cc(OC)cc(N(CCN2CCN(C(C)=O)CC2)c2ccc3ncc(-c4ccc(N)nc4)nc3c2)c1 [Compound 68] | > 10 | – | ~6.15 | – | – | 167 | – | – | <5
15 | COc1cc(OC)cc(N(CC2CC2)c2ccc3ncc(-c4ccnc(N5CCOCC5)c4)nc3c2)c1 [Compound 90] | – | 5.09 | – | <5 | – | 162 | > 10 | – | –
16 | COc1cc(OC)cc(N(CC2CC2)c2ccc3ncc(C(=O)N4CCC4)nc3c2)c1 [Compound 93] | > 10 | <5 | <5 | – | – | 176 | > 10 | <5 | <5
17 | CNc1ccc(-c2cnc3ccc(N(CCCNCC(F)(F)F)c4cc(OC)cc(OC)c4)cc3n2)cn1 [Compound 129] | > 10 | – | 5.89 | – | – | 165 | – | – | <5
18 | COc1cc(OC)cc(N(CCCO)c2ccc3ncc(-c4ccnc(C(=O)NCCCCCN)c4)nc3c2)c1 [Compound 130] | > 10 | – | 5.2 | – | – | 161 | – | – | <5
19 | COc1cc(OC)cc(N(CCCNC(C)C)c2ccc3ncc(-c4ccnc(NC(=O)NC(C)C)c4)nc3c2)c1 [Compound 131] | 3.98 | – | 6.08 | – | – | 155 | – | – | 5.5
20 | COc1cc(OC)cc(N(CCCO)c2ccc3ncc(-c4ccnc(-c5ccnc(Cl)c5)c4)nc3c2)c1 [Compound 133] | > 10 | – | <5 | – | – | 172 | – | – | <5
21 | COc1cc(OC)cc(N(CCCNCC(F)(F)F)c2ccc3ncc(-c4ccnc(F)c4)nc3c2)c1 [Compound 144] | > 10 | – | 5.1 | – | – | 128 | – | – | <5
22 | COc1cc(OC)cc(N(CCCNCC(F)(F)F)c2ccc3ncc(-c4ccnc(Cl)c4)nc3c2)c1 [Compound 145] | > 10 | – | <5 | – | – | 130 | – | – | <5
23 | COc1cc(OC)cc(N(CCCNCC(F)(F)F)c2ccc3ncc(-c4ccnc(C(=O)NCCCN)c4)nc3c2)c1 [Compound 148] | > 10 | – | <5 | – | – | 87 | – | – | <5
24 | COc1cc(OC)cc(N(CCCO)c2ccc3ncc(-c4cccnc4F)nc3c2)c1 [Compound 149] | > 10 | – | 5.32 | – | – | 115 | – | – | <5
25 | COc1cc(OC)cc(N(CCCNCC(F)(F)F)c2ccc3ncc(-c4ccnc(C(=O)NCCCCCO)c4)nc3c2)c1 [Compound 150] | > 10 | – | 5.11 | – | – | 95 | – | – | <5
